According to the supplement of paper PMC10307832:

Columns and labels:
Assay in all cases: relative viability (nuclei count vs DMSO), 5 days (fraction); higher = more cells survive
Calu-6 = test system: Calu-6
Outline: (§1)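 For relative viability, nuclei counts in treated wells were divided by those in vehicle wells. Lung cancer cell lines had been pin-tool dosed in 1536-well plates the day after seeding and cultured for 5 days, then fixed and stained in one step (final 0.05% Triton X-100, 1% formaldehyde, 1 ug/ml Hoechst) and imaged at 4×. Doses were one drug alone or a fixed anchor-drug dose plus five library-drug doses (not always all listed) in √10 steps, and values are duplicate-plate medians.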

NCI-H1703 = test system: NCI-H1703
Outline: as §1

CAL-12T = test system: CAL-12T
Outline: as §1

NCI-H1299 = test system: NCI-H1299
Outline: as §1

EBC-1 = test system: EBC-1
Outline: as §1

IA-LM = test system: IA-LM
Outline: as §1

NCI-H2228 = test system: NCI-H2228
Outline: as §1

A549 = test system: A549
Outline: as §1

NCI-H650 = test system: NCI-H650
Outline: as §1

NCI-H1623 = test system: NCI-H1623
Outline: as §1

NCI-H1563 = test system: NCI-H1563
Outline: as §1

| SMILES | relative viability (NCI-H1703; first compound 0.08 µM) | relative viability (NCI-H1703; first compound 0.253 µM) | relative viability (NCI-H1703; first compound 0.8 µM) | relative viability (NCI-H1703; first compound 2.53 µM) | relative viability (CAL-12T; first compound 0.08 µM) | relative viability (CAL-12T; first compound 0.253 µM) | relative viability (CAL-12T; first compound 0.8 µM) | relative viability (CAL-12T; first compound 2.53 µM) | relative viability (IA-LM; first compound 0.08 µM) | relative viability (IA-LM; first compound 0.253 µM) | relative viability (IA-LM; first compound 0.8 µM) | relative viability (IA-LM; first compound 2.53 µM) | relative viability (NCI-H2228; first compound 0.08 µM) | relative viability (NCI-H2228; first compound 0.253 µM) | relative viability (NCI-H2228; first compound 0.8 µM) | relative viability (NCI-H2228; first compound 2.53 µM) | relative viability (NCI-H650; first compound 0.08 µM) | relative viability (NCI-H650; first compound 0.253 µM) | relative viability (NCI-H650; first compound 0.8 µM) | relative viability (NCI-H650; first compound 2.53 µM) | also measured |
| --- | --- | --- | --- | --- | --- | --- | --- | --- | --- | --- | --- | --- | --- | --- | --- | --- | --- | --- | --- | --- | --- |
| Oc1nc(-c2ccc(C(F)(F)F)cc2)nc2c1CSCC2 [XAV939] + CC1(C)CCC(c2ccc(Cl)cc2)=C(CN2CCN(c3ccc(C(=O)NS(=O)(=O)c4ccc(N[C@H](CCN5CCOCC5)CSc5ccccc5)c(S(=O)(=O)C(F)(F)F)c4)cc3)CC2)C1 [Navitoclax] (partner 0.5 µM) | 1.33 | 1.35 | 0.89 | 0.844 | 1.39 | 1.07 | 1.28 | 1.03 | 0.89 | 0.698 | 0.781 | 0.463 | 1.13 | 0.838 | 0.94 | 1.1 |  |  |  |  | relative viability (Calu-6; first compound 0.08 µM): 0.909; relative viability (Calu-6; first compound 0.253 µM): 0.779; relative viability (Calu-6; first compound 0.8 µM): 0.867; relative viability (Calu-6; first compound 2.53 µM): 0.857; relative viability (NCI-H1299; first compound 0.08 µM): 1.07; relative viability (NCI-H1299; first compound 0.253 µM): 1.02; relative viability (NCI-H1299; first compound 0.8 µM): 1.1; relative viability (NCI-H1299; first compound 2.53 µM): 1.04; relative viability (EBC-1; first compound 0.08 µM): 0.489; relative viability (EBC-1; first compound 0.253 µM): 0.413; relative viability (EBC-1; first compound 0.8 µM): 0.404; relative viability (EBC-1; first compound 2.53 µM): 0.447; relative viability (A549; first compound 0.08 µM): 1.49; relative viability (A549; first compound 0.253 µM): 1.06; relative viability (A549; first compound 0.8 µM): 1.12; relative viability (A549; first compound 2.53 µM): 1.06 |
| Oc1nc(-c2ccc(C(F)(F)F)cc2)nc2c1CSCC2 [XAV939] + CC(=O)Nc1cccc(-n2c(=O)n(C3CC3)c(=O)c3c(Nc4ccc(I)cc4F)n(C)c(=O)c(C)c32)c1 [Trametinib] (partner 0.02 µM) |  |  |  |  | 0.346 | 0.257 | 0.272 | 0.223 |  |  |  |  | 0.429 | 0.488 | 0.541 | 0.571 | 1.08 | 1.05 | 1 | 0.92 |  |
| Oc1nc(-c2ccc(C(F)(F)F)cc2)nc2c1CSCC2 [XAV939] + CC(=O)c1c(C)c2cnc(Nc3ccc(N4CCNCC4)cn3)nc2n(C2CCCC2)c1=O [Palbociclib] (partner 0.5 µM) |  |  |  |  | 0.465 | 0.342 | 0.263 | 0.209 |  |  |  |  | 0.971 | 0.613 | 0.664 | 0.657 | 0.376 | 0.35 | 0.333 | 0.303 |  |
| Oc1nc(-c2ccc(C(F)(F)F)cc2)nc2c1CSCC2 [XAV939] + Cc1nc(Nc2ncc(C(=O)Nc3c(C)cccc3Cl)s2)cc(N2CCN(CCO)CC2)n1 [Dasatinib] (partner 0.075 µM) |  |  |  |  | 0.572 | 0.401 | 0.308 | 0.211 |  |  |  |  | 0.496 | 0.426 | 0.473 | 0.382 | 0.497 | 0.501 | 0.444 | 0.414 | relative viability (NCI-H1623; first compound 0.08 µM): 0.474; relative viability (NCI-H1623; first compound 0.253 µM): 0.516; relative viability (NCI-H1623; first compound 0.8 µM): 0.521; relative viability (NCI-H1623; first compound 2.53 µM): 0.555; relative viability (NCI-H1563; first compound 0.08 µM): 0.422; relative viability (NCI-H1563; first compound 0.253 µM): 0.442; relative viability (NCI-H1563; first compound 0.8 µM): 0.475; relative viability (NCI-H1563; first compound 2.53 µM): 0.415 |
| Oc1nc(-c2ccc(C(F)(F)F)cc2)nc2c1CSCC2 [XAV939] + NC(=O)Nc1cc(-c2cccc(F)c2)sc1C(=O)N[C@H]1CCCNC1 [AZD7762] (partner 0.2 µM) | 0.156 | 0.137 | 0.138 | 0.111 | 0.654 | 0.595 | 0.609 | 0.507 |  |  |  |  |  |  |  |  | 1.04 | 0.809 | 1.02 | 0.773 |  |
| Oc1nc(-c2ccc(C(F)(F)F)cc2)nc2c1CSCC2 [XAV939] + Nc1nc2[nH]cc(CCc3ccc(C(=O)N[C@@H](CCC(=O)O)C(=O)O)cc3)c2c(=O)[nH]1 [Pemetrexed] (partner 0.2 µM) |  |  |  |  | 1.2 | 1.13 | 1.18 | 0.814 |  |  |  |  | 0.332 | 0.341 | 0.29 | 0.271 | 0.973 | 1 | 0.96 | 0.816 | relative viability (NCI-H1563; first compound 0.08 µM): 0.823; relative viability (NCI-H1563; first compound 0.253 µM): 0.685; relative viability (NCI-H1563; first compound 0.8 µM): 0.659; relative viability (NCI-H1563; first compound 2.53 µM): 0.47 |
| Oc1nc(-c2ccc(C(F)(F)F)cc2)nc2c1CSCC2 [XAV939] + Nc1ncn([C@H]2C[C@H](O)[C@@H](CO)O2)c(=O)n1 [Decitabine] (partner 2 µM) |  |  |  |  |  |  |  |  |  |  |  |  |  |  |  |  | 0.286 | 0.305 | 0.33 | 0.325 | relative viability (A549; first compound 0.08 µM): 0.291; relative viability (A549; first compound 0.8 µM): 0.315; relative viability (A549; first compound 2.53 µM): 0.228 |
| Oc1nc(-c2ccc(C(F)(F)F)cc2)nc2c1CSCC2 [XAV939] + O=C(CCCCCCC(=O)Nc1ccccc1)NO [Vorinostat] (partner 1 µM) |  |  |  |  | 0.984 | 0.483 | 0.823 | 0.381 | 1.08 | 0.664 | 0.951 | 0.778 | 0.639 | 0.589 | 0.775 | 0.597 | 0.461 | 0.345 | 0.506 | 0.368 |  |
| Oc1nc(-c2ccc(C(F)(F)F)cc2)nc2c1CSCC2 [XAV939] + O=C(c1cc(Cc2n[nH]c(=O)c3ccccc23)ccc1F)N1CCN(C(=O)C2CC2)CC1 [Olaparib] (partner 8 µM) | 0.415 | 0.236 | 0.408 | 0.485 | 0.788 | 0.699 | 0.689 | 0.654 | 0.824 | 0.633 | 0.728 | 0.699 | 0.945 | 0.562 | 0.65 | 0.608 | 0.413 | 0.426 | 0.47 | 0.372 | relative viability (Calu-6; first compound 0.08 µM): 0.556; relative viability (Calu-6; first compound 0.253 µM): 0.547; relative viability (Calu-6; first compound 0.8 µM): 0.544; relative viability (Calu-6; first compound 2.53 µM): 0.504; relative viability (NCI-H1299; first compound 0.08 µM): 0.937; relative viability (NCI-H1299; first compound 0.253 µM): 0.883; relative viability (NCI-H1299; first compound 0.8 µM): 0.931; relative viability (NCI-H1299; first compound 2.53 µM): 0.914; relative viability (EBC-1; first compound 0.08 µM): 0.722; relative viability (EBC-1; first compound 0.253 µM): 0.623; relative viability (EBC-1; first compound 0.8 µM): 0.619; relative viability (EBC-1; first compound 2.53 µM): 0.607; relative viability (A549; first compound 0.08 µM): 0.357; relative viability (A549; first compound 0.253 µM): 0.265; relative viability (A549; first compound 0.8 µM): 0.246; relative viability (A549; first compound 2.53 µM): 0.19 |
